This is an account of results in patent US20040171795A1, “Novel peptides” (priority 2000, published 2004).

One data set has as its system nuclease Bal 31. Put plainly: Nuclease resistance-imparting ability for P=O form oligonucleotide. Format: biochemical. The conditions noted are these: 2 U Bal 31, 30° C., 60 minutes, peptide 50 μM, oligonucleotide 3 μM. The method, then:
Nuclease resistance-imparting ability for natural (P═O form) oligonucleotide was evaluated. To be more specific, 2 U of nuclease Bal 31 (manufactured by Takara Shuzo) was added to 20 mM Tris-HCl buffer (pH=8) containing 50 μM of the peptide of SEQ ID NO:1 prepared in Example 1, 3 μM of P═O form oligonucleotide prepared in Example 6, 150 mM NaCl, 12 mM MgCl2, and 12 mM CaCl2, and the reaction was allowed to take place at 30° C. for 60 minutes. Next, the oligonucleotide which escaped from the decomposition was extracted with phenol/chloroform, and subjected to electrophoresis by the procedure described in Example 8 to stain the oligonucleotide.

In another data set the test system is A549. The experiment in a line: Luciferase plasmid introduction versus phosphatidyl serine translocation. It is filed as cell-based, human. From the text: (§1) A cell line established from monkey kidney (Vero cell) and a human bladder cancer cell (T24 cell) purchased from American Type Culture Collection (ATCC) and human lung cancer cell (A549 cell) purchased from Dainippon Pharmaceutical were inoculated on a 24 well culture plate (manufactured by NALGEN NUNC) at 1×10^5 cells/well. Vero cell and A549 cell were cultivated in DMEM (manufactured by Life Technologies Oriental) supplemented with 10% fetal bovine serum (hereinafter referred to as FBS, manufactured by NICHIREI), and T24 cell was cultivated in McCoy's 5a (manufactured by Life Technologies Oriental) supplemented with 10% FBS in 5% CO2 atmosphere at 37° C. for 24 hours. […] The luciferase activity expressed in the cell was then measured by the method instructed in luciferase assay system (manufactured by Promega). […] 20 μL of this cell lysate and 100 μL of the Luciferase Assay Reagent II attached to the kit was added to a fluorescence-measuring plate (Microlite™ 1 plate, manufactured by Dynatech), and after mixing, fluorescence was measured for 1 second by using a multilabel counter (ARVO™ SY1420 MULTILABEL COUNTER, manufactured by Wallac Beltold. […]

The subject of the next data set is T24. The data set is described as above. It is filed as cell-based, human.
Source text: as §1

Data set [1] in a line: Measurement of CD spectrum. It is filed as physicochemical. The conditions noted are these: aqueous solution solely containing an inorganic salt, pH 7, 35° C. As for the experimental part: The peptide dissolved in 10 mM phosphate buffer (pH=7) containing 50 mM NaCl was evaluated for its CD spectrum in the presence and in the absence of 5 mM SDS by using a circular dichroism spectrophotometer (J-500A, manufactured by JASCO). The cell length was 1 mm. The measurement was conducted at 35° C. for 6 times in total. FIGS. 7 to 9 are respectively views showing mean residue ellipticity in CD spectroscopy of the peptide of SEQ ID NO:1, the peptide of SEQ ID NO:4 and the peptide of SEQ ID NO:16. As evident in FIGS. 7 to 9, the mean residue ellipticity obtained in the presence of SDS was the so called W curve and local minimums were found in the areas at the wavelength of 205 to 210 nm and 220 to 225 nm, and α-helix structure was thereby confirmed.

Data set [2] is described as follows: Affinity by surface plasmon resonance (Biacore 2000), flow cell 2. The conditions noted are these: SPR, HPA chip, 0.1 mg/mL BSA; compared with flow cell 1. Format: binding. As for the experimental part: The specific affinity of the peptide for phosphatidyl serine was evaluated by means of surface plasmon resonance (SPR) using Biacore 2000 (manufactured by Biacore). To be more specific, phosphatidyl choline was immobilized on flow cell 1, and 50% of phosphatidyl serine and 50% of phosphatidyl choline were immobilized on flow cell 2 of HPA chip (manufactured by Biacore), and ability of the peptide to bind to the phospholipid was evaluated in the presence of 0.1 mg/mL BSA to thereby evaluate the affinity.
On the technique in general: SPR reads the build-up and loss of mass on a sensor chip optically.

For the substance “SEQ ID NO: 1: peptide having the amino acid sequence of SEQ ID NO:1, made by solid phase synthesis (TRYLRIHPRSWVHQIALRLRYLRIHPRSWVHQIALRS; synthetic peptide using an automatic peptide synthesizer)”, the “nuclease resistance-imparting ability for natural (P═O form) oligonucleotide” value with nuclease Bal 31 is “found to exhibit nuclease resistance-imparting ability”. The Luciferase activity in the data set on A549 is 8.7 × 10^4 cps/mg protein; with T24, 7.8 × 10^3 cps/mg protein. Further, in data set [1], the “α-helix structure in CD spectrum in the absence of SDS” value is reported as “do not take α-helix structure”. Further, in data set [2], the “binding to flow cell 2 (50% phosphatidyl serine, 50% phosphatidyl choline)” value was “stronger”.
